In assay [1] the target is T1, Estrogen receptor (Homo sapiens) (UniProt P03372).
T1 sequence (whole entry): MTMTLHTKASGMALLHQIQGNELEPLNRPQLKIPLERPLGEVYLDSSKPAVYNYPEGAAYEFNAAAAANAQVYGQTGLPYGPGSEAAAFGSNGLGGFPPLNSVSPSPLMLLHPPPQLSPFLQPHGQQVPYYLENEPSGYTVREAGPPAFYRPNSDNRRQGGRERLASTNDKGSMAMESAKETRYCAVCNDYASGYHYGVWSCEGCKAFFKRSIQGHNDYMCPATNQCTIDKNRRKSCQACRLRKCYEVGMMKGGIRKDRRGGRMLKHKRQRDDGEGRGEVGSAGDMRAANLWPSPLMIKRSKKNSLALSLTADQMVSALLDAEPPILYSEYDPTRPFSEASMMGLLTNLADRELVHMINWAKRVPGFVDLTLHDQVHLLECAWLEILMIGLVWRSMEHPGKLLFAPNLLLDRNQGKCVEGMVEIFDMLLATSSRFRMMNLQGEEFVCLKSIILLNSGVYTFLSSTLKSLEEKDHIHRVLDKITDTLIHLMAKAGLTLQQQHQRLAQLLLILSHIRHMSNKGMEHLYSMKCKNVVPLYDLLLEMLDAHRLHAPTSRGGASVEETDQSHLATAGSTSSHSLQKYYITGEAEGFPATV
In words: Displacement of [3H]estradiol from full-length human estrogen receptor alpha by radiometric assay relative to estradiol.

Assay [2] concerns the target Estrogen receptor beta (Homo sapiens) (UniProt Q92731). In words: Displacement of [3H]estradiol from full-length human estrogen receptor beta by radiometric assay relative to estradiol.

Results on eleven molecules are retold here after ChEMBL document CHEMBL1151900, “Steroidal bivalent ligands for the estrogen receptor: design, synthesis, characterization and binding affinities” (Bioorg Med Chem, 2009).

Chain of Estrogen receptor beta (Homo sapiens) (Q92731 whole entry): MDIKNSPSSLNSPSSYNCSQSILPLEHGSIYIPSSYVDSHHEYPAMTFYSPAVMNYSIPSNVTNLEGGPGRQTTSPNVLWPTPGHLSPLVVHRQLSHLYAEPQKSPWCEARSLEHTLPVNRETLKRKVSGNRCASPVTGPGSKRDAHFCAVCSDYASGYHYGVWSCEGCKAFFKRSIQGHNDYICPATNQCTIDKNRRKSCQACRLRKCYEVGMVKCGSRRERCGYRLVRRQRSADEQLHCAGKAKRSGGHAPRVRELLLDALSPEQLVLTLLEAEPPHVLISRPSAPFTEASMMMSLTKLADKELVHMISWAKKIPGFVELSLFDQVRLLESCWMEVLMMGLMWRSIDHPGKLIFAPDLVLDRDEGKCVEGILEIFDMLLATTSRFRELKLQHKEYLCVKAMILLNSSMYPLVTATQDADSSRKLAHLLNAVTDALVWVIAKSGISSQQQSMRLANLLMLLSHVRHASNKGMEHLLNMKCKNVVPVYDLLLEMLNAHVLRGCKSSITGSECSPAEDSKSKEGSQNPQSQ

On to `C[C@]12CC[C@@H]3c4ccc(O)cc4CC[C@H]3[C@@H]1CC[C@@]2(O)C#Cc1ccc(OCCCCOCCCCOCCCCOc2ccc(C#C[C@]3(O)CC[C@H]4[C@@H]5CCc6cc(O)ccc6[C@H]5CC[C@@]43C)cc2)cc1`, for which the RBA in assay [1] amounted to 4.5%; in assay [2], 1.5%.
The corresponding values for `C[C@]12CC[C@@H]3c4ccc(O)cc4CC[C@H]3[C@@H]1CC[C@@]2(O)C#Cc1ccc(CNCCOCCOCCOCCOCCOCCNCc2ccc(C#C[C@]3(O)CC[C@H]4[C@@H]5CCc6cc(O)ccc6[C@H]5CC[C@@]43C)cc2)cc1` are 6.8% and 3.6%.
For `C[C@]12CC[C@@H]3c4ccc(O)cc4CC[C@H]3[C@@H]1CC[C@@]2(O)C#Cc1ccc(OCCCCOCCCCOc2ccc(C#C[C@]3(O)CC[C@H]4[C@@H]5CCc6cc(O)ccc6[C@H]5CC[C@@]43C)cc2)cc1` the same measures were 1.8% and 0.82%.
The corresponding values for `C[C@]12CC[C@@H]3c4ccc(O)cc4CC[C@H]3[C@@H]1CC[C@@]2(O)C#Cc1ccc(OCCCOCCCOCCCOCCCOCCCOCCCOc2ccc(C#C[C@]3(O)CC[C@H]4[C@@H]5CCc6cc(O)ccc6[C@H]5CC[C@@]43C)cc2)cc1` are 1.5% and 0.38%.
In the case of `C[C@]12CC[C@@H]3c4ccc(O)cc4CC[C@H]3[C@@H]1CC[C@@]2(O)C#Cc1ccc(OCCCOCCCOCCCOc2ccc(C#C[C@]3(O)CC[C@H]4[C@@H]5CCc6cc(O)ccc6[C@H]5CC[C@@]43C)cc2)cc1`, the RBA in assay [1] was 2.1%; in assay [2], 0.53%.
With `C[C@]12CC[C@@H]3c4ccc(O)cc4CC[C@H]3[C@@H]1CC[C@@]2(O)C#Cc1ccc(OCCCOCCCOc2ccc(C#C[C@]3(O)CC[C@H]4[C@@H]5CCc6cc(O)ccc6[C@H]5CC[C@@]43C)cc2)cc1`, the RBA turned out to be 0.9% in assay [1] and 0.38% in assay [2].
Turning to `C[C@]12CC[C@@H]3c4ccc(O)cc4CC[C@H]3[C@@H]1CC[C@@]2(O)C#Cc1ccc(OCCCCOCCCCOCCCCOCCCCOc2ccc(C#C[C@]3(O)CC[C@H]4[C@@H]5CCc6cc(O)ccc6[C@H]5CC[C@@]43C)cc2)cc1`, the RBA worked out at 2.6% in assay [1] and 0.76% in assay [2].
As to `C[C@]12CC[C@@H]3c4ccc(O)cc4CC[C@H]3[C@@H]1CC[C@@]2(O)C#Cc1ccc(OCCCOCCCOCCCOCCCOc2ccc(C#C[C@]3(O)CC[C@H]4[C@@H]5CCc6cc(O)ccc6[C@H]5CC[C@@]43C)cc2)cc1`, the figures for the RBA in assay [1] and in assay [2] were 6.9% and 0.003%, respectively.
`C[C@]12CC[C@@H]3c4ccc(O)cc4CC[C@H]3[C@@H]1CC[C@@]2(O)C#Cc1ccc(OCCCOCCCOCCCOCCCOCCCOc2ccc(C#C[C@]3(O)CC[C@H]4[C@@H]5CCc6cc(O)ccc6[C@H]5CC[C@@]43C)cc2)cc1`: the RBA in assay [1] turned out to be 2.3%; in assay [2], 0.69%.
Turning to `C[C@]12CC[C@@H]3c4ccc(O)cc4CC[C@H]3[C@@H]1CC[C@@]2(O)C#Cc1ccc(OCCOCCOCCOCCOCCOCCOc2ccc(C#C[C@]3(O)CC[C@H]4[C@@H]5CCc6cc(O)ccc6[C@H]5CC[C@@]43C)cc2)cc1`, the values for the RBA in assay [1] and in assay [2] were 1.2% and 0.68%, respectively.
Turning to `C[C@]12CC[C@@H]3c4ccc(O)cc4CC[C@H]3[C@@H]1CC[C@@]2(O)C#Cc1ccc(OCCCCOCCCCOCCCCOCCCCOCCCOc2ccc(C#C[C@]3(O)CC[C@H]4[C@@H]5CCc6cc(O)ccc6[C@H]5CC[C@@]43C)cc2)cc1`, the figures for the RBA in assay [1] and in assay [2] were 1.6% and 0.22%, respectively.
